Source: patent US20070004689A1, “Antiangiogenic agents” (priority 2004, published 2007)
Where two headings read alike, the source gives them in different places.

Columns and labels:
[1] = tested on: MDA-MB-231 a human breast carcinoma; test: BrdU proliferation assay, MDA-MB-231 (anti-tumor activity); type: cell-based; details: BrdU DNA synthesis, 48 h exposure, read-out: MDA-MB-231 (IC50 μM)
From the text: (§1) Cell Culture: Human umbilical vein endothelial cells (HUVEC) were obtained from Clonetics (San Diego, Calif.), MCF7 cells were the kind gift of Dr. Dorraya El Ashry (University of Michigan), MDA-MB-231 a human breast carcinoma, PC3 a human prostate carcinoma, and U87-MG a human glioma, cell lines were obtained from ATCC. HUVEC cultures were maintained for up to 5 passages in EGM containing bovine brain extract (Clonetics) and 1× antibiotic-antimycotic (BioWhittaker, Walkersville, Md.). MDA-MB-231, PC3, U87-MG and MCF-7 cells were maintained in DMEM/F12 (1:1) containing 10% (v/v) fetal bovine serum (Hyclone Laboratories, Logan, Utah) and 1× antibiotic-antimycotic. MCF7 cells were used between passage 60 and passage 100.
(§2) Proliferation Assays: Proliferation was measured by cell counting using a Coulter Zl cell counter (Coulter Corporation, Hialeah, Fla.) or by evaluation of DNA synthesis. Each condition was done in triplicate and experiments were repeated at least twice. To determine estrogenicity of the analogs, MCF7 estrogen-dependent proliferation assays were performed. The cells were seeded in complete media at 10,000 cells/well in a 24 well plate after allowing the cells to adhere overnight and the seeding density was determined by cell counts. Cells were washed with PBS (37° C.) and starved by placing them in IMEM-phenol red free media containing 2% charcoal-dextran fetal bovine-stripped serum (Valley Biomedical, Winchester, Va.) and 1× antibiotic-antimycotic. After 3 days of starvation, cells were treated with or without increasing concentrations of compounds, replacing the media every 2-3 days and counted after 7 days of treatment. In order to ensure that only the added test compounds stimulated growth, experiments were performed only with cell cultures that duplicated less than once during the starvation period. Values are expressed as MCF7 stimulation index (SI) relative to 2ME2 (defined as 1.00). A value less than 1.00 indicates reduced estrogenicity. Estradiol is used as a positive control.
(§3) To determine anti-tumor and anti-angiogenic activities of the analogs, proliferation assays were performed by evaluating detection of DNA synthesis by use of the 5-bromo-2′-deoxyuridine (BrdU) cell proliferation colorimetric ELISA kit from Roche (Indianapolis, Ind.) according to the manufacturer's instructions. For BrdU assays, the cells were seeded at 1,000 cells/well (MDA-MB-231, anti-tumor activity) or 3,000 cells/well (HUVEC, anti-angiogenic activity) in a 96 well plate, allowed to attach overnight and then exposed to the compound for 48 h. IC50 value is the concentration at which cell proliferation is inhibited by 50%.
(§4) Antiproliferative activity of the NCEs were assessed in tumor cell lines (MDA-MB-231 a breast carcinoma, PC3 a prostate carcinoma and U87-MG a glioma) and endothelial cells (HUVEC).

[2] = tested on: PC3 a human prostate carcinoma; test: Proliferation assay, PC3; type: cell-based; details: proliferation, read-out: PC3 (IC50 μM)
From the text: as §1, §2, §3, §4

[3] = tested on: MCF7 cells; test: MCF7 estrogen-dependent proliferation assay (estrogenicity); type: cell-based, human; details: stimulation index, 2ME2 defined as 1.00; less than 1.00 = reduced estrogenicity; 7 days of treatment
From the text: as §1
as §2, with “[…].” for “Values are expressed as MCF7 stimulation index (SI) relative to 2ME2 (defined as 1.00). A value less than 1.00 indicates reduced estrogenicity.”

[4] = tested on: Rat hepatocyte suspensions; test: Hepatocyte incubations, rat; type: in vitro ADME; details: rat hepatocytes, NR = no reaction; for Hepatocyte Rat 60/120′ (1 uM): 60′ / Hepatocyte Rat 60/120′ (5 uM): 60′: 60 minutes; for Hepatocyte Rat 60/120′ (1 uM): 60′ / Hepatocyte Rat 60/120′ (1 uM): 120′: in % (unit assumed); for Hepatocyte Rat 60/120′ (5 uM): 60′ / Hepatocyte Rat 60/120′ (5 uM): 120′: unit assumed; for Hepatocyte Rat 60/120′ (5 uM): 120′ / Hepatocyte Rat 60/120′ (1 uM): 120′: 120 minutes
Method: (§5) Hepatocyte Incubations: An in vitro measure of metabolism using cells from rat and human liver. Rat and human hepatocyte suspensions (10^6 cells per mL of serum-free (H)CL15 culture medium) were incubated with 2 concentrations (1 and 5 μM) of each of the compounds. Stock solutions were prepared in DMSO, and were further diluted in culture medium to the final test concentrations. 7-Ethoxycoumarin (7-EC) were included as a positive control substrate for P450. A 0.1 M 7-EC stock solution was prepared in DMSO, and the final assay concentration was 100 μM. The reactions were initiated by the addition of the substrates, incubated at 37° C., and terminated after 0, 60 and 120 minutes by addition of acetonitrile. The positive 7-EC control reactions were stopped with perchloric acid or ZnSO4 and BaOH after 60-minutes of incubation. The reaction mixture was centrifuged to remove the cell debris, and the supernatant was used for subsequent analysis by HPLC/LC-MS. If necessary, the supernatants were flash frozen in liquid N2 and stored at −70° C. until further analysis. HPLC was used to analyze product formation from 7-EC. Analyses to determine the concentration of the test compounds were carried out using reverse phase HPLC with tandem mass spectrometric detection (LC-MS/MS). Samples were analyzed to measure the disappearance of parent compound over time. The rate of metabolism was estimated by fitting a curve to the data for each concentration against time using GraphPad Prism Version 3.02 software.

[5] = tested on: human hepatocyte suspensions; test: Hepatocyte incubations, human; type: in vitro ADME; details: human hepatocytes, NR = no reaction; for Hepatocyte Human 60/120′ (1 uM): 60′ / Hepatocyte Human 60/120′ (5 uM): 60′: 60 minutes; for Hepatocyte Human 60/120′ (1 uM): 120′ / Hepatocyte Human 60/120′ (5 uM): 120′: 120 minutes
Method: as §5

Structure (SMILES)	IC50 ([1]; Homo sapiens, MDA-MB-231) [µM]	IC50 ([2]; Homo sapiens) [µM]	MCF7 SI Relative to 2ME2 [3]	Hepatocyte Rat 60/120′ (1 uM): 60′ [4]	Hepatocyte Rat 60/120′ (5 uM): 60′ [4] [%]	Hepatocyte Rat 60/120′ (5 uM): 120′ [4] [%]	Hepatocyte Human 60/120′ (1 uM): 60′ [5]	Hepatocyte Human 60/120′ (1 uM): 120′ [5]	Hepatocyte Human 60/120′ (5 uM): 120′ [5]	IC50 [1] [µM]	IC50 [2] [µM]	Hepatocyte Rat 60/120′ (1 uM): 120′ [4]	Hepatocyte Human 60/120′ (5 uM): 60′ [5]
COc1cc2c(cc1C(N)=O)CC[C@@H]1[C@@H]2CC[C@]2(C)C(=O)CC[C@@H]12 [Compound 54, 2-methoxy-17-oxoestra-1,3,5(10)-triene-3-carboxamide]	2.2 ± 0.43	4.64 ± 0.9	0.26	78	95	101	99	102	103				
COc1cc2c(cc1C(N)=O)CC[C@@H]1[C@@H]2CC[C@]2(C)CCC[C@@H]12 [Compound 57, (2-Methoxyestra-1,3,5(10)-trien-3-yl)-3-carboxamide]			0.31	91	95	83	111	98	118	2.37 ± 0.8	5.7 ± 0.58	85	117
C=C1CC[C@H]2[C@@H]3CCc4cc(C(N)=O)c(OC)cc4[C@H]3CC[C@]12C [Compound 60, 2-Methoxy-17-methyleneestra-1,3,5(10)-triene-3-carboxamide]	0.19 ± 0.08	0.25 ± 0.01	0.26	99	87			91	93			87	96
COc1cc2c(cc1C(N)=O)CC[C@@H]1[C@@H]2CC[C@]2(C)C=CC[C@@H]12 [Compound 63, 3-carboxamide-2-methoxy-1,3,5(10)16-estratetraene]			0.28	77	78	87	52	70	71	0.19 ± 0.04	0.21 ± 0.1	67	92
